The values that follow come from patent US10882837B2, “Amide compounds and use thereof” (ALPHALA CO., LTD., priority 2017, dated 2021).

A word on the IC50: it is the midpoint of a concentration-inhibition curve. What is called inhibition is how much of the control response was suppressed.

Test [1] has as its target T1, GCGR (Homo sapiens, UniProt P47871). Nature of the test: I125-glucagon binding assay (competition, GCGR membrane fractions). On the set-up: expressed in transfected cells; host or cells: CHO-K1. The note with it: for IC50: competition with I125-glucagon 0.0625 nM, membrane fractions from GCGR overexpressed CHO-K1 cells. The gist of the method: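 Membranes from CHO-K1 cells overexpressing GCGR (7.5 µg/well) were preincubated 5 min with serially diluted compound in 50 mM Tris pH 7.4, 0.5% BSA. I125-glucagon was then added at 0.0625 nM final and incubated 30 min at 25 °C. After filtration, bound radioactivity was counted and IC50 derived by non-linear regression.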
Target sequence in this assay (P47871 26-477, species assumed): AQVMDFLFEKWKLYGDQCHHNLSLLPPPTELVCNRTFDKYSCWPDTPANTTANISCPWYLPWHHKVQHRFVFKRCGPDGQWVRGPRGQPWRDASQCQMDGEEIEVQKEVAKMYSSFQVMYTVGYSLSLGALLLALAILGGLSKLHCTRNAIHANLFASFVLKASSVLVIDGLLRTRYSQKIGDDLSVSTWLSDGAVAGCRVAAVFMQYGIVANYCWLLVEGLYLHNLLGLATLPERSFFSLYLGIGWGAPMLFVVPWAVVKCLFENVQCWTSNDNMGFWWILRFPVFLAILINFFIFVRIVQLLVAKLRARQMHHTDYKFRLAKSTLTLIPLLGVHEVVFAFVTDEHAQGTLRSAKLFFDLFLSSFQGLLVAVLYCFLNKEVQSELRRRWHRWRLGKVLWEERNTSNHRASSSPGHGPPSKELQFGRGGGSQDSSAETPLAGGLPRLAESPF

In test [2] the target is T1, GCGR. Nature of the test: HTRF cAMP assay in primary human hepatocytes stimulated with recombinant glucagon. Format: cell-based. Further details: endogenous in cells; host or cells: primary human hepatocytes. How it is done: Downstream secondary messenger eAMP induced by glucagon was detected by Cisbio cAMP Dynamic 2 kit. Testing compounds were each prepared as a dimethyl sulfoxide (DMSO) solution at the concentration of 10 mM. To evaluate the potency of compounds in inhibiting the cAMP production, glucagon receptor (GCGR) overexpressed CHO-K1 cells or human primary hepatocytes were treated with compounds with a serial dilution. The cells were re-suspended in Hank's Balanced Salt solution (HBSS) contained 0.1% (w/v) bovine serum albumin and 800 nM 3-isobutyl-1-methylxanthine (IBMX) and seeded into low volume, 384 wells white plate. The diluted compounds were then added into the plate for 30 minutes pre-incubation where the final DMSO concentration was 1%. The cells were stimulated with glucagon at the concentration equaled to EC50 (an indicium of the concentration of a drag that gives half-maximal response) for 30 minutes at room temperature. After incubation, lysis buffer contain cAMP antibody and fluorescence acceptor were added into each well for additional 60 minutes incubation.
The HTRF cAMP assay was performed by following the manufacturer guidance. Primary human hepatocytes, pre-incubated with tested compounds at various concentrations, were stimulated with recombinant glucagon and the IC50 values were determined by the non-linear regression based on the amount of cAMP production.
Target sequence in this assay (P47871 26-477): as the sequence (P47871 26-477, species assumed) above
Background: Time-resolved FRET reads energy transfer from a long-lived donor to a nearby acceptor.

For another test, the target named is T2, glucagon receptor (GCGR) (Homo sapiens, UniProt P47871).
T2 construct: expressed in transfected cells; host or cells: CHO-K1
Put plainly: Glucagon cAMP inhibition assay (Cisbio cAMP Dynamic 2 HTRF). Format: cell-based. As to conditions: GCGR overexpressed CHO-K1 cells or human primary hepatocytes (not specified); glucagon at EC50. The gist of the method: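 GCGR-overexpressing CHO-K1 cells or human primary hepatocytes in HBSS with 0.1% BSA and 800 nM IBMX, pre-incubated 30 min with compound (1% DMSO final), then stimulated 30 min at room temperature with glucagon at its EC50. cAMP measured by HTRF after 60 min lysis; IC50 from non-linear regression.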

T2 sequence (P47871 26-477, species assumed): as above

On to `CCC(C)[C@H](Nc1ccc(C(=O)NCCC(=O)O)cc1)c1ccc(-c2nnc(-c3ccccc3)o2)cc1` (stereo partly drawn) [Compound 1-49, 3-(4-(((1S)-2-methyl-1-(4-(5-phenyl-1,3,4-oxadiazol-2-yl)phenyl)butyl)amino)benzamido)propanoic acid], for which the IC50 at GCGR [1] came to 92 nM; on GCGR [2], 19 nM; at glucagon receptor (GCGR) it was 2050 nM.

In the case of `CCC(C)[C@H](Nc1ccc(C(=O)NCCC(=O)O)cc1)c1ccc(-c2noc(-c3ccccc3)n2)cc1` (stereo partly drawn) [Compound 2-19, 3-(4-(((1S)-2-methyl-1-(4-(5-phenyl-1,2,4-oxadiazol-3-yl)phenyl)butyl)amino)benzamido)propanoic acid], the IC50 came out at 49 nM at GCGR [1], 15 nM on GCGR [2] and 473 nM against glucagon receptor (GCGR).

Take `CC(C)[C@H](Nc1ccc(C(=O)NCCC(=O)O)cn1)c1ccc(-c2nc3ccccc3s2)cc1` [Compound 4-28, (S)-3-(6-((1-(4-(benzo[d]thiazol-2-yl)phenyl)-2-methylpropyl)amino)nicotinamido)propanoic acid]: the IC50 at GCGR [1] was determined as 47.7 nM; at GCGR [2] it was 62 nM; against glucagon receptor (GCGR), 2690 nM.

On to `CC(C)[C@H](Nc1ccc(C(=O)NCCC(=O)O)cn1)c1ccc(-c2nc3ccccc3o2)cc1` [Compound 4-30, (S)-3-(6-((1-(4-(benzo[d]oxazol-2-yl)phenyl)-2-methylpropyl)amino)nicotinamido)propanoic acid], for which the IC50 on GCGR [1] is 41.8 nM; on GCGR [2], 53 nM; against glucagon receptor (GCGR), 2380 nM.

Take `CCOC(=O)CCNC(=O)c1ccc(N[C@@H](CC(C)C)c2ccc(-c3nc(-c4ccccc4)no3)cc2)cc1` [Compound 5-1, ethyl (S)-3-(4-((3-methyl-1-(4-(3-phenyl-1,2,4-oxadiazol-5-yl)phenyl)butyl)amino)benzamido)propanoate]: the concentration for half-maximal inhibition (IC50) at GCGR [1] stood at 637 nM; against glucagon receptor (GCGR), 52 nM.

In the case of `CC(C)C[C@H](Nc1ccc(C(=O)NCCC(=O)O)cc1)c1ccc(-c2nc(-c3ccccc3)no2)cc1` [Compound 5-2, (S)-3-(4-((3-methyl-1-(4-(3-phenyl-1,2,4-oxadiazol-5-yl)phenyl)butyl)amino)benzamido)propanoic acid], the figures for the IC50 at GCGR [1] and on glucagon receptor (GCGR) were 20 nM and 211 nM, respectively.

For `CCOC(=O)CCNC(=O)c1ccc(N[C@H](c2ccc(-c3nc(-c4ccccc4)no3)cc2)C(C)C)cc1` [Compound 5-3, ethyl (S)-3-(4-((2-methyl-1-(4-(3-phenyl-1,2,4-oxadiazol-5-yl)phenyl)propyl)amino)benzamido)propanoate], the IC50 at GCGR [1] stood at 1740 nM; against glucagon receptor (GCGR), 71.4 nM.

As for `CC(C)[C@H](Nc1ccc(C(=O)NCCC(=O)O)cc1)c1ccc(-c2nc(-c3ccccc3)no2)cc1` [Compound 5-4, (S)-3-(4-((2-methyl-1-(4-(3-phenyl-1,2,4-oxadiazol-5-yl)phenyl)propyl)amino)benzamido)propanoic acid], the IC50 was found to be 34.1 nM on GCGR [1] and 292 nM at glucagon receptor (GCGR).

`CCOC(=O)CCNC(=O)c1ccc(N[C@H](c2ccc(-c3nc(-c4ccccc4)no3)cc2)C(C)CC)cc1` (stereo partly drawn) [Compound 5-5, ethyl 3-(4-(((1S)-2-methyl-1-(4-(3-phenyl-1,2,4-oxadiazol-5-yl)phenyl)butyl)amino)benzamido)propanoate]: the figures for the IC50 on GCGR [1] and on glucagon receptor (GCGR) were 876 nM and 46 nM, respectively.

As to `CCC(C)[C@H](Nc1ccc(C(=O)NCCC(=O)O)cc1)c1ccc(-c2nc(-c3ccccc3)no2)cc1` (stereo partly drawn) [Compound 5-6, 3-(4-(((1S)-2-methyl-1-(4-(3-phenyl-1,2,4-oxadiazol-5-yl)phenyl)butyl)amino)benzamido)propanoic acid], the IC50 on GCGR [1] came out at 13.1 nM; on glucagon receptor (GCGR), 239 nM.

Consider `CCCC[C@H](Nc1ccc(C(=O)NCCC(=O)OCC)cc1)c1ccc(-c2nc(-c3ccccc3)no2)cc1` [Compound 5-7, ethyl (S)-3-(4-((1-(4-(3-phenyl-1,2,4-oxadiazol-5-yl)phenyl)pentyl)amino)benzamido)propanoate], for which the IC50 came to 1020 nM at GCGR [1] and 59 nM against glucagon receptor (GCGR). On GCGR [1] (compound at 30 μM, read-out: percentage of inhibition (number in parenthesis in IC50 binding column)), the inhibition at 30 µM amounted to 32%.

Consider `CCCC[C@H](Nc1ccc(C(=O)NCCC(=O)O)cc1)c1ccc(-c2nc(-c3ccccc3)no2)cc1` [Compound 5-8, (S)-3-(4-((1-(4-(3-phenyl-1,2,4-oxadiazol-5-yl)phenyl)pentyl)amino)benzamido)propanoic acid], for which the IC50 was determined as 14 nM on GCGR [1] and 202 nM against glucagon receptor (GCGR).

Turning to `CCOC(=O)CCNC(=O)c1ccc(OC(c2ccc(-c3nc4ccccc4s3)cc2)C(C)C)cc1` (centres unmarked) [Compound 6-1, Ethyl 3-(4-(1-(4-(benzo[d]thiazol-2-yl)phenyl)-2-methylpropoxy)benzamido)propanoate], the IC50 at GCGR [1] is over 30000 nM; on glucagon receptor (GCGR), 85.6 nM.

Take `CC(C)C(Oc1ccc(C(=O)NCCC(=O)O)cc1)c1ccc(-c2nc3ccccc3s2)cc1` (centres unmarked) [Compound 6-2, 3-(4-(1-(4-(Benzo[d]thiazol-2-yl)phenyl)-2-methylpropoxy)benzamido)propanoic acid]: the IC50 on GCGR [1] came out at 1110 nM; against glucagon receptor (GCGR) it was 133 nM.

`CCOC(=O)CCNC(=O)c1ccc(C(Oc2ccc(-c3nc4ccccc4o3)cc2)C(C)C)cc1` (centres unmarked) [Compound 7-1, Ethyl 3-(4-(1-(4-(benzo[d]oxazol-2-yl)phenoxy)-2-methylpropyl)benzamido)propanoate]: the IC50 was over 30000 nM on GCGR [1] and 487 nM against glucagon receptor (GCGR).

On to `CC(C)C(Oc1ccc(-c2nc3ccccc3o2)cc1)c1ccc(C(=O)NCCC(=O)O)cc1` (centres unmarked) [Compound 7-2, 3-(4-(1-(4-(Benzo[d]oxazol-2-yl)phenoxy)-2-methylpropyl)benzamido)propanoic acid], for which the values for the IC50 at GCGR [1] and against glucagon receptor (GCGR) were 177 nM and 292 nM, respectively.

As to `CCOC(=O)CCNC(=O)c1ccc(C(Oc2ccc(-c3nc4ccccc4s3)cc2)C(C)C)cc1` (centres unmarked) [Compound 7-3, Ethyl 3-(4-(1-(4-(benzo[d]thiazol-2-yl)phenoxy)-2-methylpropyl)benzamido)propanoate], the IC50 at GCGR [1] is 2110 nM; against glucagon receptor (GCGR), 292 nM.

In the case of `CC(C)C(Oc1ccc(-c2nc3ccccc3s2)cc1)c1ccc(C(=O)NCCC(=O)O)cc1` (centres unmarked) [Compound 7-4, 3-(4-(1-(4-(Benzo[d]thiazol-2-yl)phenoxy)-2-methylpropyl)benzamido)propanoic acid], the IC50 at GCGR [1] came to 208 nM; against glucagon receptor (GCGR), 209 nM.
